# Source: US20180369195A1, “COMBINATION THERAPY FOR TREATMENT OF MELANOMA” (The Regents of the University of California, priority 2015, published 2018)
# Tests used:
# Format in all cases: cell-based, human
# [1] = test system: β-catenin; experiment: Western blot of β-catenin; conditions: G361, SK-MEL-2 cells pre-treated 3 hours with GSK3β inhibitor, then 20 μM 1-benzyl I3C 24 hours
# From the text: The western blots employed the following primary antibodies: mouse anti-MITF-M (Thermo-scientific), mouse anti-HSP 90 (BD Biosciences), mouse anti-CDK2, rabbit anti-CDK4, rabbit anti-CDK-6, mouse anti-rabbit BRAF, goat anti-LEF-1, rabbit anti-AXIN, mouse anti-BCL2, (Santa Cruz), rabbit anti-P21, mouse anti-Cyclin D1, rabbit anti-MEK-p, rabbit anti-MEK1/2, rabbit anti-GSK3β rabbit anti-LRP6, rabbit anti-LRP6-phospho (Cell signaling), mouse anti-β-catenin (Invitrogen).
# [2] = test system: CDK4; experiment: Western blot of CDK4; conditions: G-361 cells, 48 hours; 200 μM I3C, 10 μM Vemurafenib or 10 μM U0126
# Experimental: (§1) Western Blot analyses of samples electrophoretically fractionated on 12% acrylamide gels were carried out as previously described (Wagle et al., J. Clin. Oncol. 2011. 29(22):3085-3096; Nguyen et al., Chem. Biol. Interact. 2010. 186(3):255-266). Enhanced chemiluminescence (ECL) Lightening reagents were used to visualize the primary antibody bound protein bands in nitrocellulose membranes and the results captured on ECL Autoradiography Film (GE Healthcare, Piscataway, N.J.). The western blots employed the following primary antibodies: mouse anti-MITF-M (Thermo-scientific), mouse anti-HSP 90 (BD Biosciences), mouse anti-CDK2, rabbit anti-CDK4, rabbit anti-CDK-6, mouse anti-rabbit BRAF, goat anti-LEF-1, rabbit anti-AXIN, mouse anti-BCL2, (Santa Cruz), rabbit anti-P21, mouse anti-Cyclin D1, rabbit anti-MEK-p, rabbit anti-MEK1/2, rabbit anti-GSK3β rabbit anti-LRP6, rabbit anti-LRP6-phospho (Cell signaling), mouse anti-β-catenin (Invitrogen).
# [3] = test system: MITF-M; experiment: MITF-M protein levels in cultured melanoma cells (western blot, immunofluorescence); conditions: for MITF-M protein levels (western blot): G-361 cells, 48 hours, 200 μM I3C, 10 μM Vemurafenib or 10 μM U0126
# Experimental: as §1
# [4] = test system: phosphorylated Erk/MAPK; experiment: Western blot of phosphorylated Erk/MAPK; conditions: G-361 cells, 48 hours; 200 μM I3C, 10 μM Vemurafenib or 10 μM U0126
# Experimental: (§2) Western Blot analyses of samples electrophoretically fractionated on 12% acrylamide gels were carried out as previously described (Wagle et al., J. Clin. Oncol. 2011. 29(22):3085-3096; Nguyen et al., Chem. Biol. Interact. 2010. 186(3):255-266). […] The western blots employed the following primary antibodies: mouse anti-MITF-M (Thermo-scientific), mouse anti-HSP 90 (BD Biosciences), mouse anti-CDK2, rabbit anti-CDK4, rabbit anti-CDK-6, mouse anti-rabbit BRAF, goat anti-LEF-1, rabbit anti-AXIN, mouse anti-BCL2, (Santa Cruz), rabbit anti-P21, mouse anti-Cyclin D1, rabbit anti-MEK-p, rabbit anti-MEK1/2, rabbit anti-GSK3β rabbit anti-LRP6, rabbit anti-LRP6-phospho (Cell signaling), mouse anti-β-catenin (Invitrogen).
# [5] = test system: phosphorylated MEK; experiment: Western blot of phosphorylated MEK; conditions: G361 and DM738 cells, 10 μM Vemurafenib, 24 hours
# Experimental: as §2
# [6] = test system: SK-MEL-2 cells; experiment: CCK-8 proliferation assay, SK-MEL-2; conditions: 48 hours
# Experimental: […] Cells were treated with 20 μM 1-benzyl I3C every 24 hours for 72 hours and harvested at 24, 48 and 72 hours for western blot and flow cytometric analysis. Cells were treated with 20 μM LiCl or 10 μM BIO for 48 hours before harvesting them for western blots.
# Subsequently inhibition of proliferation was assessed using Cell counting Kit-8 (Dojindo) as per the protocol in the user's manual. Briefly, 50 μl of the CCK-8 solution was added to each well along with 450 μl media and incubated for 2-3 hours. The absorbance was read at 450 nm and % inhibition was calculated for each condition standardizing DMSO to zero using the formula: [(100−Value of treatment/Value of DMSO treated control)×100]
Compound,"rescue of 1-benzyl I3C induced downregulation of β-catenin, MITF-M, CDK2, BCl2 [1]",CDK4 protein levels [2],MITF-M protein levels (western blot) [3],phosphorylated Erk/MAPK levels [4],MEK-P levels [5],"sensitivity of MITF-M inhibition to Vemurafenib ([3]; SK-MEL-2 cells (wild-type BRAF), 10 μM Vemurafenib, 24 hours)",antiproliferation in wild-type BRAF cells [6]
"O=C1Nc2cc(Br)ccc2/C1=C1/Nc2ccccc2/C1=N\O [BIO, 6-bromoindirubin-3′-oxime]",significant rescue,–,–,–,–,–,–
"[Cl-].[Li+] [LiCl, Lithium Chloride]",significant rescue,–,–,–,–,–,–
"N#CC(=C(/N)Sc1ccccc1N)/C(C#N)=C(\N)Sc1ccccc1N [U0126, reference compound]",–,down regulated,down regulated,down regulated,–,–,–
Vemurafenib [reference compound],–,down regulated,down regulated,down regulated,downregulated MEK-P,not sensitive to Vemurafenib action,ineffective
